Assay results from PMC8026479 (Cancer Chemotherapy and Pharmacology, 2021).
Like-named read-outs stand apart in the source and are kept apart here.

Experiments:
[1] = tested on: chemotherapy-induced myelosuppression in ES-SCLC patients; assay: Study G1T28-03 Part 1 DLTs and myelosuppression endpoints (with topotecan); assay type: in vivo, human
Excerpt: G1T28-03 (NCT02514447) was a multicentre Phase Ib/IIa study in patients with previously treated ES-SCLC [14]. Patients were aged ≥ 18 years and had histologically or cytologically confirmed ES-SCLC that had progressed during or after prior first- or second-line chemotherapy, measurable disease per RECIST version 1.1, an ECOG performance status of 0–2, and adequate organ function. Part 1 was a Phase Ib, open-label, dose-finding portion. Part 2 was a Phase IIa, randomized, double-blind, placebo-controlled portion. […] In Part 1 of the study, blood samples for PK analysis were collected at prespecified time points on Cycle 1 Day 1 and Cycle 1 Day 4 for all patients.

[2] = tested on: total bone marrow cycling cells; parameters: method as in doi:10.1200/jco.2015.33.15_suppl.2529; settings: dogs; cited from earlier work
[3] = human, in vivo; cited from earlier work
[4] = Study G1T28-1-01 plasma PK, first-in-human single dose; assay type: in vivo; settings: for Vd: read-out: Vz
[5] = G1T28-03 Part 1, 200 mg/m2 + topotecan 0.75 mg/m2 (n = 4)
[6] = G1T28-03 Part 1, 200 mg/m2 + topotecan 1.25 mg/m2 (n = 3)
[7] = G1T28-03 Part 1, 200 mg/m2 + topotecan […]2 (n = 2)
[8] = G1T28-03 Part 1, 240 mg/m2 + topotecan 0.75 mg/m2 (n = 8)
[9] = G1T28-03 Part 1, 240 mg/m2 + topotecan 1.00 mg/m2 (n = 8)
[10] = G1T28-03 Part 1, 280 mg/m2 + topotecan 0.75 mg/m2 (n = 7)
[11] = G1T28-03 Part 1, total (n = 32)
[12] = both sexes, human, plasma, iv, 6 mg/m2, healthy volunteers, single 30-min IV 6 mg/m2 (n = 3), mean
[13] = both sexes, human, plasma, iv, 12 mg/m2, healthy volunteers, single 30-min IV 12 mg/m2 (n = 3), mean
[14] = both sexes, human, plasma, iv, 24 mg/m2, healthy volunteers, single 30-min IV 24 mg/m2 (n = 3), mean
[15] = both sexes, human, plasma, iv, 49 mg/m2, healthy volunteers, single 30-min IV 49 mg/m2 (n = 3), mean
[16] = both sexes, human, plasma, iv, 96 mg/m2, healthy volunteers, single 30-min IV 96 mg/m2 (n = 6), mean
[17] = both sexes, human, plasma, healthy volunteers, single 30-min IV 6 mg/m2 (n = 3), mean
[18] = both sexes, human, plasma, healthy volunteers, single 30-min IV 96 mg/m2 (n = 6), mean
[19] = both, human, plasma, intravenous, […]2, healthy volunteers, BED cohort […]2 (n = 12), mean
[20] = both, human, plasma, intravenous, […]2, healthy volunteers, both […]2 cohorts (n = 18), mean
[21] = both, human, plasma, iv, […]2, healthy volunteers, single 30-min IV […]2 SAD cohort (n = 6), mean
[22] = healthy volunteers, single 30-min IV 6 mg/m2 (n = 3), mean
[23] = healthy volunteers, single 30-min IV 96 mg/m2 (n = 6), mean

## CN1CCN(c2ccc(Nc3ncc4cc5n(c4n3)C3(CCCCC3)CNC5=O)nc2)CC1 [trilaciclib]
[1]; G1T28-03 Part 1, 200 mg/m2 + topotecan 0.75 mg/m2
  patients reporting DLTs: 2 of 4
[1]; [5]
  DSN in Cycle 1, mean (SD): 0 (0.0) days
  MAHE, event rate: 0.102 per week
  Mean ANC Nadir in Cycle 1: 0.98 (0.330) ×109/L
  Occurrence of ESA administrations: 0 n (%)
  Occurrence of FN: 0 n (%)
  Occurrence of G-CSF administration: 1 (25.0) n (%)
  Occurrence of Grade 3 or 4 decreased hemoglobin laboratory values: 2 (50.0) n (%)
  Occurrence of Grade 3 or 4 decreased platelet count values: 2 (50.0) n (%)
  Occurrence of Grade 3 or 4 hematologic laboratory abnormalities: 4 (100.0) n (%)
  Occurrence of IV antibiotic use: 1 (25.0) n (%)
  Occurrence of RBC transfusions on/after Week 5: 2 (50.0) n (%)
  Occurrence of SN: 1 (25.0) n (%)
  Occurrence of infection SAEs: 1 (25.0) n (%)
  Occurrence of platelet transfusions: 0 n (%)
  Occurrence of pulmonary infection SAEs: 1 (25.0) n (%)
[1]; [6]
  DSN in Cycle 1, mean (SD): 8 (6.8) days
  MAHE, event rate: 0.156 per week
  Mean ANC Nadir in Cycle 1: 0.47 (0.551) ×109/L
  Occurrence of ESA administrations: 1 (33.3) n (%)
  Occurrence of FN: 0 n (%)
  Occurrence of G-CSF administration: 2 (66.7) n (%)
  Occurrence of Grade 3 or 4 decreased hemoglobin laboratory values: 1 (33.3) n (%)
  Occurrence of Grade 3 or 4 decreased platelet count values: 1 (33.3) n (%)
  Occurrence of Grade 3 or 4 hematologic laboratory abnormalities: 3 (100.0) n (%)
  Occurrence of IV antibiotic use: 1 (33.3) n (%)
  Occurrence of RBC transfusions on/after Week 5: 1 (33.3) n (%)
  Occurrence of SN: 2 (66.7) n (%)
  Occurrence of infection SAEs: 1 (33.3) n (%)
  Occurrence of platelet transfusions: 1 (33.3) n (%)
  Occurrence of pulmonary infection SAEs: 1 (33.3) n (%)
[1]; [7]
  DSN in Cycle 1, mean (SD): 14 (1.4) days
  MAHE, event rate: 0.403 per week
  Mean ANC Nadir in Cycle 1: 0.20 (0.000) ×109/L
  Occurrence of ESA administrations: 2 (100) n (%)
  Occurrence of FN: 0 n (%)
  Occurrence of G-CSF administration: 2 (100) n (%)
  Occurrence of Grade 3 or 4 decreased hemoglobin laboratory values: 2 (100) n (%)
  Occurrence of Grade 3 or 4 decreased platelet count values: 2 (100) n (%)
  Occurrence of Grade 3 or 4 hematologic laboratory abnormalities: 2 (100.0) n (%)
  Occurrence of IV antibiotic use: 2 (100) n (%)
  Occurrence of RBC transfusions on/after Week 5: 2 (100) n (%)
  Occurrence of SN: 2 (100) n (%)
  Occurrence of infection SAEs: 2 (100) n (%)
  Occurrence of platelet transfusions: 0 n (%)
  Occurrence of pulmonary infection SAEs: 1 (50.0) n (%)
[1]; [8]
  DSN in Cycle 1, mean (SD): 0 (0.0) days
  MAHE, event rate: 0.037 per week
  Mean ANC Nadir in Cycle 1: 1.31 (0.650) ×109/L
  Occurrence of ESA administrations: 1 (12.5) n (%)
  Occurrence of FN: 0 n (%)
  Occurrence of G-CSF administration: 4 (50.0) n (%)
  Occurrence of Grade 3 or 4 decreased hemoglobin laboratory values: 3 (37.5) n (%)
  Occurrence of Grade 3 or 4 decreased platelet count values: 0 n (%)
  Occurrence of Grade 3 or 4 hematologic laboratory abnormalities: 7 (87.5) n (%)
  Occurrence of IV antibiotic use: 1 (12.5) n (%)
  Occurrence of RBC transfusions on/after Week 5: 1 (12.5) n (%)
  Occurrence of SN: 0 n (%)
  Occurrence of infection SAEs: 0 n (%)
  Occurrence of platelet transfusions: 0 n (%)
  Occurrence of pulmonary infection SAEs: 0 n (%)
[1]; [9]
  DSN in Cycle 1, mean (SD): 3 (5.5) days
  MAHE, event rate: 0.073 per week
  Mean ANC Nadir in Cycle 1: 0.63 (0.341) ×109/L
  Occurrence of ESA administrations: 1 (12.5) n (%)
  Occurrence of FN: 0 n (%)
  Occurrence of G-CSF administration: 3 (37.5) n (%)
  Occurrence of Grade 3 or 4 decreased hemoglobin laboratory values: 3 (37.5) n (%)
  Occurrence of Grade 3 or 4 decreased platelet count values: 1 (12.5) n (%)
  Occurrence of Grade 3 or 4 hematologic laboratory abnormalities: 7 (87.5) n (%)
  Occurrence of IV antibiotic use: 1 (12.5) n (%)
  Occurrence of RBC transfusions on/after Week 5: 2 (25.0) n (%)
  Occurrence of SN: 3 (37.5) n (%)
  Occurrence of infection SAEs: 1 (12.5) n (%)
  Occurrence of platelet transfusions: 0 n (%)
  Occurrence of pulmonary infection SAEs: 1 (12.5) n (%)
[1]; G1T28-03 Part 1, 280 mg/m2 + topotecan 0.75 mg/m2
  patients reporting DLTs: 2 of 7
[1]; [10]
  DSN in Cycle 1, mean (SD): 2 (3.6) days
  MAHE, event rate: 0.085 per week
  Mean ANC Nadir in Cycle 1: 0.86 (0.594) ×109/L
  Occurrence of ESA administrations: 0 n (%)
  Occurrence of FN: 1 (14.3) n (%)
  Occurrence of G-CSF administration: 2 (28.6) n (%)
  Occurrence of Grade 3 or 4 decreased hemoglobin laboratory values: 1 (14.3) n (%)
  Occurrence of Grade 3 or 4 decreased platelet count values: 2 (28.6) n (%)
  Occurrence of Grade 3 or 4 hematologic laboratory abnormalities: 7 (100.0) n (%)
  Occurrence of IV antibiotic use: 2 (28.6) n (%)
  Occurrence of RBC transfusions on/after Week 5: 1 (14.3) n (%)
  Occurrence of SN: 2 (28.6) n (%)
  Occurrence of infection SAEs: 0 n (%)
  Occurrence of platelet transfusions: 1 (14.3) n (%)
  Occurrence of pulmonary infection SAEs: 0 n (%)
[1]; [11]
  DSN in Cycle 1, mean (SD): 3 (5.1) days
  MAHE, event rate: 0.107 per week
  Occurrence of ESA administrations: 5 (15.6) n (%)
  Occurrence of FN: 1 (3.1) n (%)
  Occurrence of G-CSF administration: 14 (43.8) n (%)
  Occurrence of Grade 3 or 4 decreased hemoglobin laboratory values: 12 (37.5) n (%)
  Occurrence of Grade 3 or 4 decreased platelet count values: 8 (25.0) n (%)
  Occurrence of Grade 3 or 4 hematologic laboratory abnormalities: 30 (93.8) n (%)
  Occurrence of IV antibiotic use: 8 (25.0) n (%)
  Occurrence of RBC transfusions on/after Week 5: 9 (28.1) n (%)
  Occurrence of SN: 10 (31.3) n (%)
  Occurrence of infection SAEs: 5 (15.6) n (%)
  Occurrence of platelet transfusions: 2 (6.3) n (%)
  Occurrence of pulmonary infection SAEs: 4 (12.5) n (%)
[2]
  maximum decrease from baseline in total bone marrow cycling cells: ~ 50%
[3]
  most commonly reported AEs: headache and nausea
  severe AEs: No severe AEs were reported
  time to spontaneous resolution of all moderate AEs: ≤ 24 h
[4]; [12]
  clearance: 3130 mL/min
  Vd: 1460 L
[4]; [13]
  clearance: 2700 mL/min
  Vd: 1770 L
[4]; [14]
  clearance: 2930 mL/min
  Vd: 2310 L
[4]; [15]
  clearance: 2930 mL/min
  Vd: 3430 L
[4]; [16]
  clearance: 2370 mL/min
  Vd: 3050 L
[4]; [17]
  Tmax: 0.25 h
  half-life: 5.32 h
[4]; both sexes, human, plasma, healthy volunteers, single 30-min IV 12 mg/m2 (n = 3), mean
  half-life: 7.62 h
[4]; both sexes, human, plasma, healthy volunteers, single 30-min IV 12 mg/m2 (n = 3), mean, read-out: AUC0-inf
  AUC(0-inf): 143 ng·h/mL
[4]; both sexes, human, plasma, healthy volunteers, single 30-min IV 24 mg/m2 (n = 3), mean
  half-life: 9.28 h
[4]; both sexes, human, plasma, healthy volunteers, single 30-min IV 24 mg/m2 (n = 3), mean, read-out: AUC0-inf
  AUC(0-inf): 279 ng·h/mL
[4]; both sexes, human, plasma, healthy volunteers, single 30-min IV 24 mg/m2 (n = 3), mean, read-out: Cmax
  Cmax: 255 ng/mL
[4]; both sexes, human, plasma, healthy volunteers, single 30-min IV 49 mg/m2 (n = 3), mean
  half-life: 12.9 h
[4]; [18]
  Tmax: 0.37 h
  half-life: 14.7 h
[4]; both, human, plasma, intravenous, […]2
  Tmax: 0.47 h
[4]; [19]
  clearance: 2100 mL/min
  Vd: 2640 L
[4]; [20]
  clearance: 2050 mL/min
  Vd: 2580 L
[4]; both, human, plasma, iv, […]2
  half-life: 14.5 h
[4]; [21]
  clearance: 1950 mL/min
  Vd: 2460 L
[4]; [22]
  AUC(0-inf): 66.6 ng·h/mL
  Cmax: 50.4 ng/mL
[4]; healthy volunteers, single 30-min IV 12 mg/m2 (n = 3), mean
  Cmax: 119 ng/mL
[4]; healthy volunteers, single 30-min IV 49 mg/m2 (n = 3), mean
  AUC(0-inf): 518 ng·h/mL
[4]; [23]
  AUC(0-inf): 1341 ng·h/mL
  Cmax: 910 ng/mL
